SMILES strings stand for the structures. Where a name gives a salt, the structure may show the parent alone.

The target in data set [1] is T1, human histamine H3 receptor (hH3R) (Homo sapiens, UniProt Q9Y5N1).
T1 construct: expressed in transfected cells
The data set can be described thus: radioligand displacement binding assay, [3H]Nα-methylhistamine, HEK293 cells stably expressing hH3R. To be noted: HEK293 cells stably expressing human H3R, mean (95% CI). On the procedure:
[^3H]N^α-methylhistamine was used as a radioligand.
The radioligand displacement binding assay was carried out in HEK-293 cells stably expressing the recombinant hH3R as described by Kottke et al. with slight modifications. […] Obtained data from at least three experiments (in at least duplicates) were analyzed with GraphPad Prism 6.1 (San Diego, CA, USA) using nonlinear regression (one-site competition on logarithmic scale), and Ki values were transformed from IC50 according to Cheng-Prusoff. Statistical analysis was performed on −log Ki values.

For a further data set, the target named is T2, hMAO B (Homo sapiens, UniProt P27338).
T2 construct: purchased Sigma Aldrich M7441
T2 sequence (P27338 1-520): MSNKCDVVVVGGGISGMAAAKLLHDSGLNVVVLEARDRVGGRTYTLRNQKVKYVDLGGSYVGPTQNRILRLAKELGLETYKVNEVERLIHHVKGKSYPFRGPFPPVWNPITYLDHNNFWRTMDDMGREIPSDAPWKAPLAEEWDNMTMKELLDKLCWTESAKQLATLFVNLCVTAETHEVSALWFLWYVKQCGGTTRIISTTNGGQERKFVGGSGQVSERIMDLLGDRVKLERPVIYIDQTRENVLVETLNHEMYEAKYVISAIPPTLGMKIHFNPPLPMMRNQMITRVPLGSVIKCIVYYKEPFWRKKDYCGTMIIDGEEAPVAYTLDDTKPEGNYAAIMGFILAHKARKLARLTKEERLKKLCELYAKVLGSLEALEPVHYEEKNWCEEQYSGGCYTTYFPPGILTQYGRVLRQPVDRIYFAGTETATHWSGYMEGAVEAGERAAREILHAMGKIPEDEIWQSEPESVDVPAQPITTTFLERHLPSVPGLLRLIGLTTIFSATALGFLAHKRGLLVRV
The data set can be described thus: hMAO B inhibition, fluorometric Amplex Red MAO assay. In kind it is biochemical. To be noted: percent of inhibition at 1 μM; mean of two independent experiments; read-out: MAO B (%Inh.).

In data set [2] the test system is haloperidol-induced catalepsy. The data set can be described thus: haloperidol-induced catalepsy, bar test. In kind it is in vivo, Wistar rats. Particulars: mean ± SEM (n = 6). On the procedure:
(§1) Haloperidol (dopamine D2 antagonist)-induced catalepsy in rodents is a popular model for screening of antiparkinsonian activity of compounds [21]. Caused symptoms in animals are similar to the inability of PD patients to initiate movements. […] The reversal of catalepsy was tested for 6 min (3 times in 3 min intervals) after 1 h of haloperidol administration. As the reference compound was used MSX-3, the adenosine A2A receptor antagonist with confirmed ability to reverse catalepsy mediated by D1 and D2 receptor antagonists.
Haloperidol-induced catalepsy was not reduced by DL-76 administrated at a dose of 25 mg/kg body weight (Table 3). After administration of DL-76 at a dose of 50 mg/kg body weight, low antiparkinsonian activity in the bar test was observed. […] This effect was weaker than the anti-Parkisonian activity of MSX-3.
(§2) The experiments were carried out on male rats Wistar (180–220 g). Animals were housed in plastic cages in room at a constant temperature of 20 ± 2 °C with natural light–dark cycles. The animals had free access to standard pellet diet and water and were used after a minimum of 3 days of acclimatization to the housing conditions. Control and experimental groups consisted of 6 animals each. All experimental procedures were performed according to the European Union Directive of 22 September 2010 (2010/63/EU) and Polish legislation concerning animal care and use and was approved by the Local Ethics Committee for Experiments on Animals in Kraków, Poland (Resolution No. 70/2014, approval date: 20 May 2014). The examined compound was administered as the suspension in 0.5% methylcellulose in constant volume of 10 mL/kg.
(§3) Antiparkinsonian activity in catalepsy tests was performed as described in [28]. Haloperidol was administered s.c. at a dose of 0.63 mg/kg, which in 100% of control animals caused catalepsy. Tested compounds were administered i.p. at the doses 50 and 25 mg/kg body weight, 5 min after haloperidol injection. After 60 min from the injection of haloperidol, to assess the occurrence of catalepsy, the animals were placed in a forced position and the time they remained in this position was measured. Two tests were performed to determine the antiparkinsonian activity: crossed leg position test and bar test. In the first test, the animals were put on the hind paws behind the front (forced position); in the second, the animals were supported on a wooden block (the front paws were placed on a block suspended 10 cm above the ground). Then, the time that the animals remain is measured in a forced position (time was measured to a maximum of 60 s). Observation was carried out 3 times in 3-min intervals. The shortening of the time of catalepsy to the control group was adopted for the antiparkinsonian activity.

Data set [3] concerns haloperidol-induced catalepsy. The data set can be described thus: haloperidol-induced catalepsy, crossed-leg position test. To be noted: mean ± SEM (n = 6). The format is in vivo, Wistar rats. On the procedure: as §1, §2, §3

T1 sequence (Q9Y5N1 whole entry): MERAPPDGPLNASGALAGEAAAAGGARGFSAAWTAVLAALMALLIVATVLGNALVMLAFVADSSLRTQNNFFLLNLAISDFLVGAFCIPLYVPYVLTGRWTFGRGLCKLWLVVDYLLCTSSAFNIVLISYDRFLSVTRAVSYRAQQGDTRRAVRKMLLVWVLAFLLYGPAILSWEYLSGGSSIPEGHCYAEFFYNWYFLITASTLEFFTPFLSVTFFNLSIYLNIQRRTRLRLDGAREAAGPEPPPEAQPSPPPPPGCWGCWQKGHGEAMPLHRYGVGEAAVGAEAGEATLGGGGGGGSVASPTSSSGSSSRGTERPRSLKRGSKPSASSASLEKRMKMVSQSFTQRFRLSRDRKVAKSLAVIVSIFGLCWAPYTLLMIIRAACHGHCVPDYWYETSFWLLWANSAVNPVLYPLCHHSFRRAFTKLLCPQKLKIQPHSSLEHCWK

A word on the Ki: it is a measure of affinity in units of concentration, obtained from inhibition or displacement. Higher therefore signals a looser hold on the target. Usually melting point stands for the temperature of the solid-liquid transition. Compound `CC1CCCCN1CCCCCOc1ccc(C(C)(C)C)cc1.O=C(O)C(=O)O` (stereo not drawn) [Compound 11, 1-(5-(4-tert-Butylphenoxy)pentyl)-2-methylpiperidine hydrogen oxalate] gave a melting point of 96 to 99 °C. In data set [1], this compound had a Ki of 1560 nM. For the same compound, the inhibition at 1 µM at hMAO B is 36%.

Compound `CC(C)(C)c1ccc(OCCCCCN2CCCCCC2)cc1.O=C(O)C(=O)O` [Compound 30, 1-(5-(4-tert-Butylphenoxy)pentyl)-azepane hydrogen oxalate] returned a melting point of 151 to 153 °C. In data set [1], the affinity corresponds to a Ki of 324 nM. Further, the inhibition at 1 µM at hMAO B was found to be 18%.

Compound `CC(C)(C)c1ccc(OCCCCCN2CCCCC2)cc1.O=C(O)C(=O)O` [Compound 7, 1-(5-(4-tert-Butylphenoxy)pentyl)piperidine hydrogen oxalate] registered a melting point of 170 to 172 °C. The compound further gave a Ki in data set [1] of 252 nM. Also, on hMAO B, the inhibition at 1 µM is 28%.

Turning to `CC1CC(C)CN(CCCCCCOc2ccc(C(C)(C)C)cc2)C1.O=C(O)C(=O)O` (stereo not drawn) [Compound 23, 1-(6-(4-tert-Butylphenoxy)hexyl)-3,5-dimethylpiperidine hydrogen oxalate], the melting point was 143 to 145 °C. Further, the Ki in data set [1] worked out at 2080 nM. For the same compound, the inhibition at 1 µM at hMAO B was 34%.

For `CC1CCN(CCCCCOc2ccc(C(C)(C)C)cc2)CC1.O=C(O)C(=O)O` [Compound 26, 1-(5-(4-tert-Butylphenoxy)pentyl)-4-methylpiperidine hydrogen oxalate], the melting point is 167 to 170 °C. The compound also showed a Ki in data set [1] of 531 nM. Also, the inhibition at 1 µM at hMAO B was 39%.

`CC1CC(C)CN(CCCOc2ccc(C(C)(C)C)cc2)C1.O=C(O)C(=O)O` (stereo not drawn) [Compound 20, 1-(3-(4-tert-Butylphenoxy)propyl)-3,5-dimethylpiperidine hydrogen oxalate] had a melting point of 143 to 145 °C. This compound displayed a Ki in data set [1] of 341 nM. Besides, the inhibition at 1 µM on hMAO B was found to be 37%.

In the case of `CC1CCCN(CCCCCCOc2ccc(C(C)(C)C)cc2)C1.O=C(O)C(=O)O` (stereo not drawn) [Compound 15, 1-(6-(4-tert-Butylphenoxy)hexyl)-3-methylpiperidine hydrogen oxalate], the melting point was in the range of 140 to 142 °C. Affinity in data set [1] was put at a Ki of 351 nM. Also, the inhibition at 1 µM on hMAO B amounted to 13%.

As for `C#CCn1c(=O)c2c(nc(/C=C/c3cccc(OC)c3)n2C)n(CCCOP(=O)(O)O)c1=O.[Na].[Na]` [MSX-3, (E)-phosphoric acid mono-[3-[8-[2-(3-methoxyphenyl)vinyl]-7-methyl-2,6-dioxo-1-prop-2-ynyl-1,2,6,7-tetrahydro-purin-3-yl]propyl] ester disodium salt, reference compound], the “Times of Observation of Catalepsy (s), 0 min” value in data set [2] (25 mg/kg i.p.), in data set [2] (50 mg/kg i.p.), in data set [3] (25 mg/kg) and in data set [3] (50 mg/kg) was 0 ± 0 s each time. Besides, the “Times of Observation of Catalepsy (s), 3 min” value in data set [2] (25 mg/kg i.p.), in data set [2] (50 mg/kg i.p.), in data set [3] (25 mg/kg) and in data set [3] (50 mg/kg) was 0 ± 0 s in each case. The “Times of Observation of Catalepsy (s), 6 min” value in data set [2] (25 mg/kg i.p.), in data set [2] (50 mg/kg i.p.), in data set [3] (25 mg/kg) and in data set [3] (50 mg/kg) was 0 ± 0 s throughout.

In turn, `CC1CC(C)CN(CCCCOc2ccc(C(C)(C)C)cc2)C1.O=C(O)C(=O)O` (stereo not drawn) [Compound 21, 1-(4-(4-tert-Butylphenoxy)butyl)-3,5-dimethylpiperidine hydrogen oxalate] displayed a melting point of 170 to 172 °C. The same compound yielded a Ki in data set [1] of 1380 nM. The inhibition at 1 µM at hMAO B came out at 35%.

Turning to `CC1CC(C)CN(CCCCCOc2ccc(C(C)(C)C)cc2)C1.O=C(O)C(=O)O` (stereo not drawn) [Compound 22, 1-(5-(4-tert-Butylphenoxy)pentyl)-3,5-dimethylpiperidine hydrogen oxalate], the melting point lay in the range of 175 to 178 °C. The Ki in data set [1] worked out at 2240 nM. Besides, the inhibition at 1 µM on hMAO B was determined as 41%.

`CC1CCCN(CCCCCOc2ccc(C(C)(C)C)cc2)C1.O=C(O)C(=O)O` (stereo not drawn) [Compound 14, 1-(5-(4-tert-Butylphenoxy)pentyl)-3-methylpiperidine hydrogen oxalate] gave a melting point of 179 to 181 °C. In addition, affinity in data set [1] was put at a Ki of 114 nM. Moreover, on hMAO B, the inhibition at 1 µM came to 33%.

`CC1CCN(CCCOc2ccc(C(C)(C)C)cc2)CC1.O=C(O)C(=O)O` [Compound 24, 1-(3-(4-tert-Butylphenoxy)propyl)-4-methylpiperidine hydrogen oxalate] had a melting point of 158 to 160 °C. Further, the affinity in data set [1] corresponds to a Ki of 316 nM. For the same compound, the inhibition at 1 µM on hMAO B worked out at 37%.

Consider `CC(C)(C)c1ccc(OCCCCCCN2CCCCC2)cc1.O=C(O)C(=O)O` [Compound 8, 1-(6-(4-tert-Butylphenoxy)hexyl)piperidine hydrogen oxalate], for which the melting point was in the range of 156 to 158 °C. The compound further had a Ki in data set [1] of 225 nM. For the same compound, the inhibition at 1 µM at hMAO B was found to be 13%.

Compound `CC1CCN(CCCCOc2ccc(C(C)(C)C)cc2)CC1` [Compound 25, 1-(4-(4-tert-Butylphenoxy)butyl)-4-methylpiperidine hydrogen oxalate] gave an inhibition constant (Ki) in data set [1] of 400 nM. Besides, at hMAO B, the inhibition at 1 µM amounted to 33%.

As to `CC1CCCN(CCCCOc2ccc(C(C)(C)C)cc2)C1.O=C(O)C(=O)O` (stereo not drawn) [Compound 13, 1-(4-(4-tert-Butylphenoxy)butyl)-3-methylpiperidine hydrogen oxalate], the melting point fell in the range of 148 to 150 °C. This compound also returned a Ki in data set [1] of 102 nM.

As to `CC1CCN(CCCCCCOc2ccc(C(C)(C)C)cc2)CC1.O=C(O)C(=O)O` [Compound 27, 1-(6-(4-tert-Butylphenoxy)hexyl)-4-methylpiperidine hydrogen oxalate], the melting point was 136 to 139 °C. In data set [1], this compound registered a Ki of 1350 nM. In addition, at hMAO B, the inhibition at 1 µM came to 10%.

Consider `CC(C)(C)c1ccc(OCCCCCCN2CCCCCC2)cc1.O=C(O)C(=O)O` [Compound 31, 1-(6-(4-tert-Butylphenoxy)hexyl)-azepane hydrogen oxalate], for which the melting point fell in the range of 130 to 132 °C. Moreover, the inhibition at 1 µM at hMAO B came out at 23%.

In the case of `CC1(C)CCCN(CCCCOc2ccc(C(C)(C)C)cc2)C1.O=C(O)C(=O)O` [Compound 17, 1-(4-(4-tert-Butylphenoxy)butyl)-3,3-dimethylpiperidine hydrogen oxalate], the melting point was 140 to 142 °C. Besides, in data set [1], the Ki stood at 3440 nM. Also, the inhibition at 1 µM at hMAO B turned out to be 38%.
